Measured values from patent US7772230B2, “Chroman compound, processes for its preparation, and its pharmaceutical use” (China Pharmaceutical University, priority 2006, dated 2010).

How the values were obtained:
[1] = molecular target: T1, rapidly delayed rectifier potassium channel current (IKr) (Cavia porcellus, UniProt O08703); test: whole cell patch clamp on isolated Guinea pig myocardial cells, IKr; format: cell-based; conditions: Guinea pig ventricular myocytes, current recorded 10 min after administration, 25-30° C.
T1 construct: the Guinea pig myocardial cells are separated with enzymolysis; endogenous in cells; host or cells: freshly isolated guinea pig ventricular myocytes
T1 sequence (O08703 1-1294): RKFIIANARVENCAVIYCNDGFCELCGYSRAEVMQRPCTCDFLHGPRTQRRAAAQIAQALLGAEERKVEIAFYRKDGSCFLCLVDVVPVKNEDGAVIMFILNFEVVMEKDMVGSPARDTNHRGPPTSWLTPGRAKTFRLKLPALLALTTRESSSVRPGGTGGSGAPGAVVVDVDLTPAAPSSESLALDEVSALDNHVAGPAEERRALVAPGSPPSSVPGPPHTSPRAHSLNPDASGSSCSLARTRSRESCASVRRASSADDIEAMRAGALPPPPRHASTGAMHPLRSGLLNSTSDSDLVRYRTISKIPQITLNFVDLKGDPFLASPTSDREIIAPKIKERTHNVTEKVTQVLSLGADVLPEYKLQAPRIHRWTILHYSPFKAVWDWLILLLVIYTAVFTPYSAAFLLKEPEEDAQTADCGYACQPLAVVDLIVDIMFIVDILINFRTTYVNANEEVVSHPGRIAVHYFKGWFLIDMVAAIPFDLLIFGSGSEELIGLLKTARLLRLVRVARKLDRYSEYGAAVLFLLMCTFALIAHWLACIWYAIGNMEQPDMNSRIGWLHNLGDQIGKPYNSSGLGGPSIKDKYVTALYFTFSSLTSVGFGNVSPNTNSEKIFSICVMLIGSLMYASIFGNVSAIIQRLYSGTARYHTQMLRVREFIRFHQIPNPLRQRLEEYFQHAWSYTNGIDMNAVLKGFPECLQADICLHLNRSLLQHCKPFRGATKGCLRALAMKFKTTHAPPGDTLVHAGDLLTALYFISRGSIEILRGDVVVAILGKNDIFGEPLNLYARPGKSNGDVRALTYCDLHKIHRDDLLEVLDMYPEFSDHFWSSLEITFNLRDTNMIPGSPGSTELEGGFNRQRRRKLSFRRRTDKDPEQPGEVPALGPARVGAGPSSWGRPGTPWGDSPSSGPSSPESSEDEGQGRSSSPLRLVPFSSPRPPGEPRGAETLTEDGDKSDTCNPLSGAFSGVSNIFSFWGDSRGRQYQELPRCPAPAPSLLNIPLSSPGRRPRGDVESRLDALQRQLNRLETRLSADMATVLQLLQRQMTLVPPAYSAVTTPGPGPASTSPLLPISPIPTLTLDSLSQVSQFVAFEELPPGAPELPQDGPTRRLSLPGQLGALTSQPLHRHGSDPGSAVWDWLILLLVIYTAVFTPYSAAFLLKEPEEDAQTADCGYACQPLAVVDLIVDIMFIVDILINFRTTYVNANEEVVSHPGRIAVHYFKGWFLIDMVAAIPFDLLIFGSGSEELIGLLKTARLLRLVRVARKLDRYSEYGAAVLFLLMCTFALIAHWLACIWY
Protocol: (§1) Experimental title: using vitro pachynsis myocardial cells of Guinea pig, the activity is determined by the whole cell membrane Patch clamp technology.
(§2) experimental mechanism: the Guinea pig myocardial cells are separated with enzymolysis, and the rapid activation component and the slowly activation component of the delayed commutating current in the cardiac muscle cells are recorded by whole cell membrane Patch clamp. Each compound is added to the perfuse liquid for measuring current after dissolved at least 10 min. The collected data is analyzed in pulse-fit, the IC50 value for IKr and IKs of each compound is calculated.
(§3) animals: Guinea pigs, male, weight 300-400 g.
(§4) solution: calcium free Tyrode's solution
(§5) pole inner solution (mmol/L): KCl 140, MgCl2 1.0, K2-ATP 4.0, EGTA 10, HEPES 5.0, pH=7.2
(§6) Experimental apparatus: Patch clamp magnifier (EPC-10, Germany), inverted microscope (TE-2000U, Nikon, Japan), microelectrode puller (PIP5, Germany), micro-manipulator (PCS-5000, Burleigh, USA).
(§7) Then, the hearts are taken off, their ventricle are cut to smash and incubated in fresh enzyme solution at 37° C., the solution is gently stirred for 5-10 min, pouring off the supernatant fluid, diluted with Tyrode's solution containing CaCl2 1 mmol/L, that is for the first cell stored liquor; with the same operation to obtain the second and the third cell storages. […] The cells are laid for 2 h before use.
(§8) the cell liquor is put into the cell pool, after the cells adhering to the wall, they are perfused with outer liquor of the cells at the rate of 2 ml/min, cells that having calcium resistance and clear transverse striations are to be selected, the poles are moved to the cell surface by tridimensional manipulator. The high resistance block are formed between the pole top and the cell surface by under pressure, and more over using reduced pressure to broking cell membrane, the pole inner liquor can be connected to the cell inner liquor so as to form the whole cell state. After the compensation to the capacitance and series impedance compensation the voltage tongs are recorded. The signal is led by Ag/AgCl pole and magnified by the Patch clamp magnifier, the computer dispenses presetting stimulate pulse by procedure and add to cells, and the electrical signal generated from cells is translated by transducer, and stored in computer. All of the stimulate signal control, electric current, data sampling and analyses are carried out by pulse V8.60. Azimilide is used as positive drugs in the research. Each test compound is dissolved in anhydrous ethanol, diluted to the same concentration by water, and added to outer cell liquor, the top concentration of ethanol is 0.1%.
(§9) Stimulate parameter: the record of IKr and IKS: the back value of the either current is recorded. Using extra-cellular fluid containing 0.1 mmol/L CdCl2 for perfusion, sustaining the voltage at −50 mV, depolarized to 60 mV, keeping for 500 ms, and sustaining the voltage at −50 mV, keeping for 1000 ms, recording IKr; and then binding the voltage at −50 mV for 1000 ms, recording IKs.

[2] = molecular target: T2, slowly delayed rectifier potassium channel current (IKs) (Cavia porcellus, UniProt O70344); test: whole cell patch clamp on isolated Guinea pig myocardial cells, IKs; format: cell-based; conditions: Guinea pig ventricular myocytes, current recorded 10 min after administration, 25-30° C.
T2 construct: the Guinea pig myocardial cells are separated with enzymolysis; endogenous in cells; host or cells: freshly isolated guinea pig ventricular myocytes
T2 sequence (O70344 1-671): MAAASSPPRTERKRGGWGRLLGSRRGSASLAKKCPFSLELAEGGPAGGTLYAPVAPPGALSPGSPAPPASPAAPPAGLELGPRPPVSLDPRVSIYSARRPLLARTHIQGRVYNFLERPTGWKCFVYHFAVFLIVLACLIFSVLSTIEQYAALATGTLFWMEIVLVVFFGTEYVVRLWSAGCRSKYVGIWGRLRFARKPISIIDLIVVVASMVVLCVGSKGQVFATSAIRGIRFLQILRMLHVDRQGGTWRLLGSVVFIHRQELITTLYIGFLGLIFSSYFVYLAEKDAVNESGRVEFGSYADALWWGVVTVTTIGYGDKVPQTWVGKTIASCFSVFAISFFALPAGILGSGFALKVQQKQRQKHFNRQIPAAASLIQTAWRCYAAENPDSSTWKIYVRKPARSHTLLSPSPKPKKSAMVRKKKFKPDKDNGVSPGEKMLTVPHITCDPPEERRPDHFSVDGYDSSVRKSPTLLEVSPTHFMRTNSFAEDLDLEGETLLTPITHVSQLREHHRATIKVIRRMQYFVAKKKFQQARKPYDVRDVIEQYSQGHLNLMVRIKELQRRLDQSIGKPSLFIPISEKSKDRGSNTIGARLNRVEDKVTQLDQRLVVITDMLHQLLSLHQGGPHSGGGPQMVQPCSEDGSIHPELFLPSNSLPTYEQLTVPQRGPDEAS
T2 sequence (P41686 1-245 partner): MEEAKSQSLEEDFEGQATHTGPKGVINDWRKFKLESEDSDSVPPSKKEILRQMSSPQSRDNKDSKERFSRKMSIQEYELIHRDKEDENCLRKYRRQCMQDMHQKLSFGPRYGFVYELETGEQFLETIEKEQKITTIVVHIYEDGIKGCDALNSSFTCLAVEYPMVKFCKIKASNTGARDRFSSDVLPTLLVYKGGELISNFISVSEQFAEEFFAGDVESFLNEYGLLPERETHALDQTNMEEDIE
Protocol: as §1, §2, §3, §4, §5, §6, §7, §8, §9

SMILES | IC50 [1] [nM] | IC50 [2] [nM] | melting point [°C]
CCCOc1ccc2c(c1)/C(=N/N1CC(=O)N(CCCN3CCN(C)CC3)C1=O)CCO2 [Ib example 10, 1-[4-(2,3-dihydro-6-propoxy-)benzopyran]imino-3-[3-(4-methylpiperazine-1-yl)propyl]-2,4-imidazole dione difumarate] | 106 | 9.5 | –
CCOc1ccc2c(c1)/C(=N/N1CC(=O)N(CCCCN3CCN(C)CC3)C1=O)CCO2.O=C(O)/C=C/C(=O)O | – | – | 225 to 227
CCOc1ccc2c(c1)/C(=N/N1CC(=O)N(CCCN3CCN(C)CC3)C1=O)CCO2 [Ib example 9, 1-[4-(2,3-dihydro-6-ethoxy)benzopyran]imino-3-[3-(4-methylpiperazine-1-yl)propyl]-2,4-imidazole dione difumarate] | 4340 | 26.9 | –
CN1CCN(CCCCN2C(=O)CN(/N=C3\CCOc4ccc(C(N)=O)cc43)C2=O)CC1.O=C(O)/C=C/C(=O)O [Ia example 4, 1-[4-(2,3-dihydro-6-carbamoyl)benzopyran]imino-3-[4-(methyl-1-piperazine)butyl]-2,4-imidazole dione difumarate] | 450 | 330 | 192 to 194
COc1ccc2c(c1)/C(=N/N1CC(=O)N(CCCCN3CCCCC3)C1=O)CCO2 [Ia example 5, 1-[4-(2,3-dihydro-6-methoxy)benzopyran]imino-3-(4-piperidine) butyl-2,4-imidazole dione] | 7470 | 22000 | –
Cc1ccc2c(c1)/C(=N/N1CC(=O)N(CCCN3CCN(C)CC3)C1=O)CCO2 [Ia example 9, 1-[4-(2,3-dihydro-6-methyl)benzopyran]imino-3-[3-(4-methylpiperazine-1-)propyl]-2,4-imidazole dione difumarate] | 619 | 304 | –
COc1ccc2c(c1)/C(=N/N1CC(=O)N(CCCCN3CCN(C)CC3)C1=O)CCO2.O=C(O)/C=C/C(=O)O [Ia example 1, 1-[4-(2,3-dihydro-6-methoxy)benzopyran]imino-3-[4-(methyl-1-piperazine)butyl]-2,4-imidazole dione difumarate] | 1010 | 650 | 208 to 210
COc1ccc2c(c1)/C(=N/N1CC(=O)N(CCCN3CCN(C)CC3)C1=O)CCO2 [Ia example 8, 1-[4-(2,3-dihydro-6-methoxy)benzopyran]imino-3-[3-(4-methylpiperazine-1-yl)propyl]-2,4-imidazole dione difumarate] | 540 | 1.9 | –
Cc1ccc2c(c1)/C(=N/N1CC(=O)N(CCCCN3CCN(C)CC3)C1=O)CCO2.O=C(O)/C=C/C(=O)O | – | – | 231 to 233
O=C1CN(/N=C2\CCOc3ccc(Cl)cc32)C(=O)N1CCCCN1CCCCC1 [Ia example 6, 1-[4-(2,3-dihydro-6-chloro)benzopyran]imino-3-(4-piperidine) butyl-2,4-imidazole dione] | 6.2 | 61000 | –
CN1CCN(CCCCN2C(=O)CN(/N=C3\CCOc4ccc(O)cc43)C2=O)CC1.O=C(O)/C=C/C(=O)O | – | – | 203 to 205
CN1CCN(CCCN2C(=O)CN(N=C3CCOc4ccc(Cl)cc43)C2=O)CC1 [Ia example 10, 1-[4-(2,3-dihydro-6-chlorine)benzopyran]imino-3-[3-(4-methylpiperazine-1-yl)propyl]-2,4-imidazole dione difumarate] | 3870 | 5.8 | –
CCCCOc1ccc2c(c1)/C(=N/N1CC(=O)N(CCCCN3CCCCC3)C1=O)CCO2 [Ib example 7, 1-[4-(2,3-dihydro-6-butoxy)benzopyran]imino-3-(4-piperidine) butyl-2,4-imidazole dione] | 17.4 | 1030 | –
CN1CCN(CCCCN2C(=O)CN(/N=C3\CCOc4ccc(Cl)cc43)C2=O)CC1.O=C(O)/C=C/C(=O)O [Ia example 2, 1-[4-(2,3-dihydro-6-chloro)benzopyran]imino-3-[4-(methyl-1-piperazine)butyl]-2,4-imidazole dione difumarate] | 4700 | 73 | 230 to 232
Cc1ccc2c(c1)/C(=N/N1CC(=O)N(CCCCN3CCCCC3)C1=O)CCO2 [Ia example 7, 1-[4-(2,3-dihydro-6-methyl)benzopyran]imino-3-(4-piperidine) butyl-2,4-imidazole dione] | 22000 | 18900 | –
CCOc1ccc2c(c1)/C(=N/N1CC(=O)N(CCCCN3CCCCC3)C1=O)CCO2 [Ib example 5, 1-[4-(2,3-dihydro-6-ethoxy)benzopyran]imino-3-(4-piperidine) butyl-2,4-imidazole dione] | 450 | 1040 | –
CCCOc1ccc2c(c1)/C(=N/N1CC(=O)N(CCCCN3CCCCC3)C1=O)CCO2 [Ib example 6, 1-[4-(2,3-dihydro-6-propoxy-)benzopyran]imino-3-(4-piperidine) butyl-2,4-imidazole dione] | 400 | 3.2 | –
